In patent US20070128217A1 (priority 2003, published 2007):

What was measured:
[1] = tested on: recombinant human anti-SARS-CoV antibody 03-018; assay type: binding; parameters: Binding of antibody 03-018 to linear peptides of the N protein of SARS-CoV Urbani / Binding of antibody 03-018 to looped/cyclic peptides of the N protein of SARS-CoV Urbani: unit not given here
[2] = tested on: control sera (pooled serum of ten healthy LUMC hospital workers; commercial negative donor pooled serum from the Dutch bloodbank); assay type: binding, human; parameters: Binding of Control serum LUMC to linear peptides / Binding of Control serum Blood-bank to linear peptides / Binding of Control serum LUMC to looped peptides / Binding of Control Serum Blood-Bank to Looped peptides / Binding of Control serum LUMC to linear peptides of the protein M of SARS-CoV Urbani / Binding of Control serum Blood-bank to linear peptides of the protein M of SARS-CoV Urbani / Binding of Control serum LUMC to looped peptides of the protein M of SARS-CoV Urbani / Binding of Control Serum Blood-Bank to Looped peptides of the protein M of SARS-CoV Urbani: unit not given here
[3] = tested on: antibodies in sera from SARS patients (sera 1a, 1b, 2, 6, 37, 62, London, SARS-yellow, SARS-green); assay type: binding, human; parameters: Binding of serum 6 to linear peptides of protein X1 of SARS-CoV Urbani / Binding of serum 37 to linear peptides of protein X1 of SARS-CoV Urbani / Binding of serum 6 to looped/cyclic peptide (PEPSCAN-ELISA) / Binding of serum 37 to looped/cyclic peptide (PEPSCAN-ELISA) / Binding of serum 37 to looped/cyclic peptides of protein X1 of SARS-CoV Urbani / Binding of serum 6 to linear peptides of protein X2 / Binding of serum 37 to linear peptides of protein X2 / Binding of serum 37 to looped/cyclic peptides of protein X2 of SARS-CoV Urbani / Binding of serum 6 to linear peptides of protein M of SARS-CoV Urbani / Binding of serum 37 to linear peptides of protein M of SARS-CoV Urbani / Binding of serum 6 to looped/cyclic peptides of protein M of SARS-CoV Urbani / Binding of serum 37 to looped/cyclic peptides of protein M of SARS-CoV Urbani / Binding of serum 6 to linear peptides of protein X3 of SARS-CoV Urbani / Binding of serum 37 to linear peptides of protein X3 of SARS-CoV Urbani / Binding of serum 37 to looped/cyclic peptides of protein X3 of SARS-CoV Urbani / Binding of serum 6 to linear peptides of protein X4 of SARS-CoV Urbani / Binding of serum 37 to linear peptides of protein X4 of SARS-CoV Urbani / Binding of serum 37 to looped/cyclic peptides of protein X4 of SARS-CoV Urbani / Binding of serum 6 to linear peptides of protein X5 of SARS-CoV Urbani / Binding of serum 37 to linear peptides of protein X5 of SARS-CoV Urbani / Binding of serum 37 to looped/cyclic peptides of protein X5 of SARS-CoV Urbani / Binding of serum 6 to linear peptides of protein N of SARS-CoV Urbani / Binding of serum 37 to linear peptides of protein N of SARS-CoV Urbani / Binding of serum 6 to linear peptide (PEPSCAN-ELISA) / Binding of serum 1a to looped/cyclic peptides of protein N of SARS-CoV Urbani / Binding of serum 1b to looped/cyclic peptides of protein N of SARS-CoV Urbani / Binding of serum 2 to looped/cyclic peptides of protein N of SARS-CoV Urbani / Binding of serum 6 to looped/cyclic peptides of protein N of SARS-CoV Urbani / Binding of serum 37 to looped/cyclic peptides of protein N of SARS-CoV Urbani / Binding of serum 62 to looped/cyclic peptides of protein N of SARS-CoV Urbani / Binding of serum London to looped/cyclic peptides of protein N of SARS-CoV Urbani / Binding of serum SARS-green to looped/cyclic peptides of protein N of SARS-CoV Urbani: unit not given here
[4] = tested on: rabbit serum obtained by immunizing a rabbit with the SARS-CoV strain Frankfurt 1; assay type: binding; parameters: Binding of a rabbit serum to linear peptides / Binding of a rabbit serum to looped peptides / Rabbit serum linear peptides / Rabbit serum looped peptides / Binding of a rabbit serum to linear peptides of protein N of SARS-CoV Urbani (Rabbit serum linear peptides) / Binding of a rabbit serum to looped/cyclic peptides of protein N of SARS-CoV Urbani (Rabbit serum looped peptides): unit not given here

Sequence	Binding of antibody 03-018 to linear peptides of the N protein of SARS-CoV Urbani [1]	Binding of antibody 03-018 to looped/cyclic peptides of the N protein of SARS-CoV Urbani [1]	Binding of Control Serum Blood-Bank to Looped peptides [2]	Binding of Control serum Blood-bank to linear peptides [2]	Binding of Control serum LUMC to linear peptides [2]	Binding of Control serum LUMC to looped peptides [2]	Binding of serum 1a to linear peptides of protein N of SARS-CoV Urbani [3]	Binding of serum 1a to looped/cyclic peptides of protein N of SARS-CoV Urbani [3]	Binding of serum 1b to linear peptides of protein N of SARS-CoV Urbani [3]	Binding of serum 1b to looped/cyclic peptides of protein N of SARS-CoV Urbani [3]	Binding of serum 2 to linear peptides of protein N of SARS-CoV Urbani [3]	Binding of serum 2 to looped/cyclic peptides of protein N of SARS-CoV Urbani [3]	Binding of serum 6 to looped/cyclic peptides of protein N of SARS-CoV Urbani [3]	Binding of serum 37 to looped/cyclic peptides of protein N of SARS-CoV Urbani [3]	Binding of serum 62 to looped/cyclic peptides of protein N of SARS-CoV Urbani [3]	Binding of serum London to looped/cyclic peptides of protein N of SARS-CoV Urbani [3]	Binding of serum SARS-green to looped/cyclic peptides of protein N of SARS-CoV Urbani [3]	Binding of serum SARS-yellow to looped/cyclic peptides of protein N of SARS-CoV Urbani [3]	Binding of a rabbit serum to linear peptides of protein N of SARS-CoV Urbani (Rabbit serum linear peptides) [4]	Binding of a rabbit serum to looped/cyclic peptides of protein N of SARS-CoV Urbani (Rabbit serum looped peptides) [4]	other results
SDNGPQSNQRSAPRI	0.0	0.2	0.5	0.6	0.5	0.5	0.2	0.3	0.0	0.0	0.1	0.3	0.3	0.5	0.4	0.4	0.2	0.1	0.1	0.2	Binding of serum 6 to linear peptides of protein N of SARS-CoV Urbani [3]: 0.2; Binding of serum 37 to linear peptides of protein N of SARS-CoV Urbani [3]: 0.2; Binding of serum 62 to linear peptides of protein N of SARS-CoV Urbani [3]: 0.4; Binding of serum London to linear peptides of protein N of SARS-CoV Urbani [3]: 0.5; Binding of serum SARS-green to linear peptides of protein N of SARS-CoV Urbani [3]: 0.0; Binding of serum SARS-yellow to linear peptides of protein N of SARS-CoV Urbani [3]: 0.5
SGGGETALALLLLDR	0.1	0.2	0.7	0.7	0.6	0.7		0.4		0.2		0.5	0.3	0.7	0.7	0.5	0.1	0.7	0.2	0.7	Binding of serum 1a to linear peptide (PEPSCAN-ELISA) [3]: 0.3; Binding of serum 1b to linear peptide (PEPSCAN-ELISA) [3]: 0.1; Binding of serum 2 to linear peptide (PEPSCAN-ELISA) [3]: 0.2; Binding of serum 6 to linear peptide (PEPSCAN-ELISA) [3]: 0.2; Binding of serum 37 to linear peptide (PEPSCAN-ELISA) [3]: 0.7; Binding of serum 62 to linear peptide (PEPSCAN-ELISA) [3]: 0.7; Binding of serum London to linear peptide (PEPSCAN-ELISA) [3]: 0.4; Binding of serum SARS-green to linear peptide (PEPSCAN-ELISA) [3]: 0.1; Binding of serum SARS-yellow to linear peptide (PEPSCAN-ELISA) [3]: 0.5
SGKGQQQQGQTVTKK	0.1	0.2	0.6	1.0	1.1	0.6		0.3		0.2		0.3	0.3	0.6	0.5	0.4	0.2	0.3	0.2	0.4	Binding of serum 1a to linear peptide (PEPSCAN-ELISA) [3]: 0.3; Binding of serum 1b to linear peptide (PEPSCAN-ELISA) [3]: 0.1; Binding of serum 2 to linear peptide (PEPSCAN-ELISA) [3]: 0.2; Binding of serum 6 to linear peptide (PEPSCAN-ELISA) [3]: 0.4; Binding of serum 37 to linear peptide (PEPSCAN-ELISA) [3]: 0.7; Binding of serum 62 to linear peptide (PEPSCAN-ELISA) [3]: 0.9; Binding of serum London to linear peptide (PEPSCAN-ELISA) [3]: 0.6; Binding of serum SARS-green to linear peptide (PEPSCAN-ELISA) [3]: 0.5; Binding of serum SARS-yellow to linear peptide (PEPSCAN-ELISA) [3]: 0.7
SGPDDQIGYYRRATR	0.1	0.3	0.8	0.8	0.7	0.9	0.2	0.4	0.1	0.3	0.2	0.5	0.4	0.8	0.7	0.5	0.5	0.7			Binding of serum 6 to linear peptides of protein N of SARS-CoV Urbani [3]: 0.2; Binding of serum 37 to linear peptides of protein N of SARS-CoV Urbani [3]: 0.6; Binding of serum 62 to linear peptides of protein N of SARS-CoV Urbani [3]: 0.6; Binding of serum London to linear peptides of protein N of SARS-CoV Urbani [3]: 0.4; Binding of serum SARS-green to linear peptides of protein N of SARS-CoV Urbani [3]: 0.4; Binding of serum SARS-yellow to linear peptides of protein N of SARS-CoV Urbani [3]: 0.6; Recognition of the peptide by the rabbit serum [4]: recognized
